Laboratory results taken from PMC8225045, “Chemical Synthesis and Structure-Activity Relationship Study Yield Desotamide a Analogues with Improved Antibacterial Activity” (Marine Drugs, 2021).
Values after ≈ are worked out from the molar mass of the structure shown. Non-standard residues stand in square brackets, D forms with d. Residues, ends and D or L forms follow the SMILES beside them.

Tests used:
[1] = no notable antibacterial activities; cited from earlier work
Source text: Comparison of the naturally produced desotamides, a preliminary SAR of this class of compounds has been defined.

Staphylococcus aureus = tested on: Staphylococcus aureus; parameters: method as in PMID 25229313; settings: previous report; cited from earlier work
[2] = tested on: Klebsiella pneumoniae 15580; settings: 15580
Experimental: (§1) All the synthesized cyclopeptides (7–19) and the desotamide A (1) isolated from S. scopuliridis SCSIO ZJ46 were evaluated for antibacterial activities against a series of Gram-positive pathogens including […] Staphylococcus aureus ATCC29213, Bacillus subtilis BS01, Micrococcus luteus ML01, Enterococcus faecalis ATCC29212; 3 drug-resistant poultry pathogens Staphylococcus simulans LJH13, Enterococcus gallinarum LJH11, Staphylococcus haemolyticus LJH9; 4 clinical methicillin-resistant Staphylococcus aureus (MRSA) shhs-E1, MRSA 16339, MRSA 745524, MRSA 16162. Their antibacterial activities against the […] pathogens Escherichia coli ATCC 13,124 and clinical drug-resistant Klebsiella pneumonia 15580 were also assayed.
(§2) Ampicillin, vancomycin and polymyxin were used as control. The maximum test concentrations for all the compounds were 128 μg/mL.

E. coli ATCC 13124 = settings: ATCC 13124
Experimental: as §1, §2

Gram-positive pathogens = tested on: Gram-positive pathogens
Experimental: as §1, §2

Gram-negative pathogens = settings: weak activity; summary of Table 1
Experimental: as §1, §2

[3] = tested on: Staphylococcus haemolyticus LJH9; assay: microbe, parasite or virus in culture
Experimental: as §1, §2

MRSA 745524 = assay: microbe, parasite or virus in culture; settings: 745524
Experimental: as §1, §2

Bacillus subtilis BS01 = assay: microbe, parasite or virus in culture; settings: BS01
Experimental: as §1, §2

MRSA 16339 = assay: microbe, parasite or virus in culture; settings: 16339
Experimental: as §1, §2

[4] = tested on: Staphylococcus simulans LJH13; assay: microbe, parasite or virus in culture
Experimental: as §1, §2

[5] = tested on: Staphylococcus aureus ATCC 29213; assay: microbe, parasite or virus in culture; settings: ATCC 29213
Experimental: as §1, §2

[6] = tested on: Enterococcus gallinarum LJH11; assay: microbe, parasite or virus in culture
Experimental: as §1, §2

Micrococcus luteus ML01 = assay: microbe, parasite or virus in culture; settings: ML01
Experimental: as §1, §2

[7] = tested on: Enterococcus faecalis ATCC 29212; assay: microbe, parasite or virus in culture; settings: ATCC 29212
Experimental: as §1, §2

MRSA 16162 = assay: microbe, parasite or virus in culture; settings: 16162
Experimental: as §1, §2

[8] = tested on: methicillin-resistant Staphylococcus aureus (MRSA) shhsE1; assay: microbe, parasite or virus in culture; settings: methicillin-resistant shhsE1
Experimental: as §1, §2

## desotamide G [Compound 5]
[1]
  MIC, antibacterial activities: > 113 µg/mL

## wollamide A [Compound 6]
Staphylococcus aureus
  antibacterial activity against Staphylococcus aureus (in words): no antibacterial

## CC[C@H](C)[C@@H]1NC(=O)[C@H](CC(N)=O)NC(=O)[C@@H](CCCCN)NC(=O)[C@H](Cc2c[nH]c3ccccc23)NC(=O)[C@H](CC(C)C)NC(=O)[C@@H](CC(C)C)NC1=O [Compound 13, Desotamide A4] (cyclo(I[dL]LW[dK]N))
[2]
  MIC: >128 µg/mL
E. coli ATCC 13124
  MIC: 64 µg/mL (≈ 83.3 µM)
Gram-positive pathogens
  MIC values against Gram-positive pathogens (summary over the panel): 8 to 32 µg/mL
Gram-positive pathogens; entire test panel of Gram-positive bacteria
  fold increase of antibacterial activities compared to desotamide A (1): 2–4 fold
Gram-positive pathogens; summary, Figure 2
  Gram positive antibacterial activity for desotamides (in words): 2–4-Fold more active than 1
Gram-negative pathogens
  MIC against the Gram-negative pathogens tested (summary): 64 to 128 µg/mL
[3]
  MIC: 32 µg/mL (≈ 41.7 µM)
MRSA 745524
  MIC: 16 µg/mL (≈ 20.8 µM)
Bacillus subtilis BS01
  MIC: 8 µg/mL (≈ 10.4 µM)
MRSA 16339
  MIC: 16 µg/mL (≈ 20.8 µM)
[4]
  MIC: 8 µg/mL (≈ 10.4 µM)
[5]
  MIC: 16 µg/mL (≈ 20.8 µM)
[6]
  MIC: 64 µg/mL (≈ 83.3 µM)
Micrococcus luteus ML01
  MIC: 8 µg/mL (≈ 10.4 µM)
[7]
  MIC: 32 µg/mL (≈ 41.7 µM)
MRSA 16162
  MIC: 16 µg/mL (≈ 20.8 µM)
[8]
  MIC: 16 µg/mL (≈ 20.8 µM)
